Tests used:
[1] = test system: HCT116 cells; experiment: Inhibition of cancer cell proliferation (MTT, GIC50); assay type: cell-based; settings: Homo sapiens, HCT-116, 48 h incubation
Experimental: HCT116 cells derived from human colorectal cancer were used, and a cancer cell proliferation inhibition effect of a biguanide derivative was confirmed by measuring a concentration value (cell growth inhibition concentration, GIC50) at which cell growth was inhibited 50% using a 3-(4,5-dimethylthiazol-2-yl)-2,5-diphenyltetrazolium bromide (MTT) reagent.
First, the HCT116 cells were put on a 96-well plate and incubated for 24 hours to each have cell count of approximately 5000 in a DMEM medium containing 10% fetal bovine serum. Subsequently, to obtain the GIC50 value of each compound, 100 μM (or 200 μM), 25 μM, 6.25 μM, 1.56 μM or 0.39 μM of the compound was treated to each culture medium and then incubated for 48 hours. To confirm living cells after treatment with the compound, MTT was added to each culture medium and further incubated for 3 hours. Generated formazane crystal was dissolved using dimethyl sulfoxide (DMSO), and absorbance of the solution was measured at 560 nm. After the 48-hour incubation, a ratio of […] synthesized in the examples was indicated as cell viability (%) according to each administered concentration. A cell viability curve was plotted using the cell viability (%) and the calculated concentration value (GIC50) of the compound, at which 50% of the growth was inhibited, to confirm an effect on the inhibition of cancer cell proliferation.

[2] = test system: AMPK; experiment: AMPK activation (AMPKα immunoassay kit, phospho-Thr172) in MCF7 cells; assay type: cell-based, human; set-up: AMPK Activation 50 uM (degree of phosphorylated AMPKα Thr172): unit not given here; settings: 24 h; for AMPK Activation Fold: 50 uM compound vs 0 (no compound); for AMPK Activation 50 uM (degree of phosphorylated AMPKα Thr172): 50 uM compound
Experimental: The MCF7 cells were put on a 6-well plate and incubated in a DMEM medium containing 10% fetal bovine serum in an incubator to which 5% CO2 was supplied to have a cell count of approximately 5×10^5. 50 μM of the derivatives synthesized in the examples were treated to the each culture medium, and the cells were incubated for 24 hours. Subsequently, the cells were lysed by a method presented in the operation manual of the AMPKα immunoassay kit, and 20 μg of cell lysates were yielded through protein assay.

Row | SMILES | IC50 [1] [µM] | melting point [°C] | AMPK Activation Fold [2] | AMPK Activation 50 uM (degree of phosphorylated AMPKα Thr172) [2]
1 | CCCCN/C(=N\CCc1cccs1)NC(=N)N.Cl [Example 24, N4-(thiophene-2-yl)ethyl-N5-butyl biguanide hydrochloride] | > 100 | 131 to 133 | 4.4 | 29.9
2 | Cl.N=C(N)N/C(=N/Cc1cccnc1)NC1CCCCC1 [Example 26, N4-(pyridine-3-yl)methyl-N5-cyclohexyl biguanide hydrochloride] | > 100 | 265 to 266 | 2.3 | 15.4
3 | Cl.N=C(N)N/C(=N/C1CCCC1)NCc1ccccc1 [Example 30, N4-cyclopentyl-N5-benzyl biguanide hydrochloride] | > 200 | 166 to 167 | 1.4 | 7.3
4 | Cl.N=C(N)N/C(=N/Cc1ccco1)NCc1ccccc1 [Example 32, N4-(furan-2-yl)methyl-N5-benzyl biguanide hydrochloride] | > 100 | 116 to 117 | 2.5 | 16.9
5 | Cl.N=C(N)N/C(=N/Cc1ccc2c(c1)OCO2)NCCc1ccccc1 [Example 39, N4-(benzo[1,3]dioxol-5-yl)methyl-N5-(phenethyl)biguanide hydrochloride] | > 100 | 168 to 169 | 0.9 | 6.4
6 | Cl.N=C(N)N/C(=N/CCc1cccs1)NCCc1ccccc1 [Example 42, N4-(thiophene-2-yl)ethyl-N5-(phenethyl)biguanide hydrochloride] | 76 | 183 to 185 | 5.9 | 31.5
7 | Cl.N=C(N)N/C(=N/CCc1ccccc1)NCCc1ccccc1 [Example 43, N4-N5-di(phenethyl)biguanide hydrochloride] | 70.2 | 183 to 184 | 4.5 | 23.8
8 | C/N=C(/NC(=N)N)N(C)Cc1ccccc1.Cl [Example 44, N4-methyl-N5,N5-(benzyl)(methyl)biguanide hydrochloride] | > 100 | 120 to 122 | 1.9 | 12.8
9 | CN(CCc1ccccc1)/C(=N\CCc1ccccc1)NC(=N)N.Cl [Example 47, N4-(phenethyl)-N5,N5-(phenethyl)(methyl)biguanide hydrochloride] | > 100 | 144 to 145 | 1.1 | 7.2
10 | CCCCN(CC)/C(=N\CCc1ccccc1)NC(=N)N.Cl [Example 48, N4-(phenethyl)-N5,N5-(butyl)(ethyl)biguanide hydrochloride] | > 100 | 228 to 229 | 1.0 | 6.6

Second part, led by results:

Row | IC50 [1] [µM] | melting point [°C] | SMILES | AMPK Activation Fold [2] | AMPK Activation 50 uM (degree of phosphorylated AMPKα Thr172) [2]
11 | > 100 | 183 to 184 | Cl.N=C(N)N/C(=N/CCc1ccccc1)NC1CCCCC1 [Example 27, N4-(phenethyl)-N5-cyclohexyl biguanide hydrochloride] | 2.7 | 18.7
12 | > 100 | 189 to 190 | Cl.N=C(N)N/C(=N/Cc1cccnc1)Nc1ccccc1 [Example 28, N4-(pyridine-3-yl)methyl-N5-phenyl biguanide hydrochloride] | 1.0 | 6.7
13 | 18.7 | 251 to 252 | Cl.N=C(N)N/C(=N/C12CC3CC(CC(C3)C1)C2)NCCc1ccccc1 [Example 34, N4-adamantyl-N5-(phenethyl)biguanide hydrochloride] | 8.3 | 20.8
14 | 12.4 | 150 to 151 | Cl.N=C(N)N/C(=N/c1ccc(C(F)(F)F)cc1)NCCc1ccccc1 [Example 37, N4-(4-trifluoromethyl)phenyl-N5-(phenethyl)biguanide hydrochloride] | 4.1 | 10.2
15 | 85.6 | 165 to 166 | Cl.N=C(N)N/C(=N/Cc1ccccc1)NCCc1ccccc1 [Example 40, N4-benzyl-N5-(phenethyl)biguanide hydrochloride] | 3.9 | 20.5
16 | 42.8 | 125 to 127 | Cl.N=C(N)N/C(=N/Cc1ccc(F)cc1)NCCc1ccccc1 [Example 41, N4-(4-fluoro)benzyl-N5-(phenethyl)biguanide hydrochloride] | 4.0 | 10.1
17 | > 100 | 170 to 171 | CCCC/N=C(/NC(=N)N)N(Cc1ccccc1)C(C)C.Cl [Example 45, N4-butyl-N5,N5-(benzyl)(isopropyl)biguanide hydrochloride] | 1.0 | 7.1
18 | > 100 | 138 to 140 | CCCCCCN(CCCCCC)/C(=N\CCc1ccccc1)NC(=N)N.Cl [Example 49, N4-(phenethyl)-N5,N5-dihexyl biguanide hydrochloride] | 5.2 | 35.2
19 | 59.1 | 184 to 185 | CCCCN(Cc1ccccc1)/C(=N\CCc1ccccc1)NC(=N)N.Cl [Example 50, N4-(phenethyl)-N5,N5-(butyl)(benzyl)biguanide hydrochloride] | 4.0 | 21.4

Reference: patent publication US9464042B2, “Biguanide derivative, preparation method thereof, and pharmaceutical composition containing same as an active ingredient” (IMMUNOMET THERAPEUTICS INC., priority 2010, dated 2016)
